From paper PMC1199608 (Cancer Cell International, 2005)
“Also recorded” adds a separate entry of the source. Where two headings read alike, the source gives them in different places. No end group written: not given here.

Columns and labels:
Jurkat cells [1] = experiment: Apoptosis by electron microscopy; type: cell-based; settings: 4-hr incubation, 62.5 μM Pep27anal2, 100 μM etoposide, 200–400 cells counted per group
Protocol: Jurkat cells were harvested and immediately fixed in phosphate-buffered glutaraldehyde solution (pH 7.2) for 2 hrs and then fixed in 1% buffered osmium tetroxide for 2 hrs at 4°C. After processing through a graded series of ethanol and propylene oxide, the cells were embedded in Epon. A semi-thin (1 μm) section was cut and stained with toluidine blue for the ultrastructural examination. Ultra-thin (60–90 nm) sections were also prepared from the Epon block above using an ultramicrotome (LKB-V, Sweden), stained with uranyl acetate and lead citrate, and examined under a Hitachi H-7600 electron microscope (Hitachi, Kyoto, Japan). Apoptosis detection was done by taking photographs (×1,000) of the entire field of each ultra-thin sectioned sample. The degree of apoptosis (apoptosis index) was defined as the number of apoptotic cells expressed as a percentage of the total cell count.

[2] = tested on: AML-2 acute myelogenous leukemia cell line; settings: MTT assay, from semilogarithmic dose-response curves, at least in duplicate
Protocol: (§1) OCI-AML-2 (AML-2) cell line was obtained from the Ontario Cancer Institute (Toronto, Canada), and Jurkart and HL-60 cell lines from the American Type Culture Collection (ATCC, USA). These three cell lines were cultured at 37°C in a 5% CO2 atmosphere using α-MEM medium (GibcoBRL, Gland Island, NY, USA) containing 10% heat-inactivated fetal bovine serum (FBS, Sigma, ST. Louis, MO, USA). MCF-7 and NIH/3T3 cell lines from ATCC and SNU-601 cell line from the Korean Cancer Cell Bank (Seoul, Korea) were cultured under the same conditions but using RPMI-1640 medium (GibcoBRL, Gland Island, NY, USA) containing 10% heat-inactivated FBS. Cells were maintained in suspension or as monolayer cultures, and subcultured.
(§2) The in vitro cytotoxicity of the Pep27 analogues produced was measured by MTT [3-(4,5-dimethylthiazol-2-yl)-2,5-diphenyl tetrazolium bromide, Sigma, ST. Louis, USA] assay, as described by. IC50 values were determined directly from semilogarithmic dose-response curves. Experiments were carried out at least in duplicate.
(§3) To evaluate the anticancer activities of the Pep27 analogues, different concentrations of these peptides were administered to various cancer cell lines, and cytotoxicities were then determined by MTT assay. In this study, we used both anchorage-dependent and independent cancer cell lines. These included AML-2 an acute myelogenous leukemia cell line, HL-60 an acute promyelocytic leukemia cell line, Jurkat a T cell leukemia cell line, SNU-601 a gastric cancer cell line and MCF-7 a breast cancer cell line.

[3] = tested on: HL-60 acute promyelocytic leukemia cell line; settings: MTT assay, from semilogarithmic dose-response curves, at least in duplicate
Protocol: as §1, §2, §3

[4] = tested on: Jurkat T cell leukemia cell line; settings: MTT assay, from semilogarithmic dose-response curves, at least in duplicate
Protocol: as §1, §2, §3

[5] = tested on: SNU-601 gastric cancer cell line; settings: MTT assay, from semilogarithmic dose-response curves, at least in duplicate
Protocol: as §1, §2, §3

[6] = tested on: MCF-7 breast cancer cell line; settings: MTT assay, from semilogarithmic dose-response curves, at least in duplicate
Protocol: as §1, §2, §3

human erythrocytes = settings: 4% human erythrocytes in PBS pH 7.0, 1 h at 37°C, absorbance 414 nm, 100% = 0.1% Triton-100
Protocol: Peptide hemolytic activities were measured as described by, by determining hemoglobin release by 4% suspensions of fresh human erythrocytes at 414 nm. Briefly, human erythrocyte cells were centrifuged and washed three times with phosphate-buffered saline (PBS: 35 mM phosphate buffer/0.15 M NaCl, pH 7.0). […] of human red blood cells suspended 8% (v/v) in PBS were the inoculated into 96-well plates. […] of the peptide solution, Pep27 or its analogues, was then added to each well. The plates were incubated for 1 h at 37°C, and centrifuged at 150 g for 5 min. […] aliquots of the supernatant obtained were transferred to flat-bottom 96-microtiter plates. Hemolysis was determined by measuring absorbance at 414 nm with an ELISA plate reader (Molecular Devices Emax, Sunnyvale, CA, USA). Hemolysis rates of 0% or 100% were determined as the same way with PBS and 0.1% Triton-100, respectively. Hemolysis percent was calculated using the following equation: % hemolysis = [(Abs414nm in the peptide solution - Abs414nm in PBS)/(Abs414nm in 0.1% Triton-100 - Abs414nm in PBS)] × 100.

Jurkat cells [7] = experiment: Cytochrome c release from mitochondria to cytosol (Western blotting); type: cell-based; settings: Jurkat cells (5 × 10^5/ml), 62.5 μM, 4 h
Protocol: Cytochrome c immunoblotting was performed using a slight modification of a previously described method. Jurkat cells were collected by centrifugation at 200 g for 5 min at 4°C. The cells were then washed twice with ice-cold PBS, pH 7.4, and centrifuged at 200 g for 5 min. The cell pellet obtained was then resuspended in 600 μl of extraction buffer, containing 20 mM Hepes-KOH (pH 7.5), 10 mM KCl, 250 mM sucrose, 1 mM EGTA, 1 mM EDTA, 1.5 mM MgCl2, 1 mM dithiothreitol and 0.1 mM phenylmethylsulfonyl fluoride.
After incubation for 30 min on ice, the cells were homogenized (20 strokes), spun at 14,000 g for 15 min, supernatants were separated from the mitochondrial fraction, and both were stored at -70°C, until required for gel electrophoresis. The mitosol fraction was obtained by adding 0.1% SDS. […]
Cytochrome c is a well-characterized mitochondrial protein and is involved in cellular energy metabolism. […] After these incubations, cytochrome c in the cytosol fraction, obtained by 14,000 g centrifugation for 15 min, and in the mitosol, obtained by adding 0.1% SDS to the mitochondrial fraction, was determined by Western blotting.

Jurkat cells [8] = experiment: Apoptosis and membrane integrity by flow cytometry (annexin V-FITC / PI); type: cell-based; settings: 4 hr, 12.5 μM or 63 μM Pep27anal2, 12.5 μM mellitin, 100 μM etoposide
Protocol: Annexin V binding was assessed by flow cytometry, and cell staining was evaluated using FITC-labeled annexin V (green fluorescence), and propidium iodide (PI) ([…]) simultaneously. This test was able to discriminate between intact cells (FITC-/PI-), apoptotic cells (FITC+/PI-) and necrotic cells (FITC+/PI+) (Vermes et al., 1995). Jurkat cells (10^5/ml) were exposed to etoposide (100 μM), mellitin (12.5 μM) and Pep27anal2 (12.5 μM and 62.5 μM) for 4 hr. Cells were washed with PBS, resuspended in 400 μl of binding buffer (10 mM Hepes/NaOH, pH 7.4, 140 mM NaCl, 2.5.mM CaCl2), and incubated with 10 μl of annexin V-FITC (MedSystems Diagnostics, GmbH, […]) for 10 min at room temperature. After incubation, cells were washed with binding buffer and exposed to 1 μg of PI in a final volume of 400 μl. FITC and PI fluorescences were determined using a flow cytometer (Becton Dickinson, Franklin Lakes, FL, USA)
In the present study, Jurkat cells were treated with 100 μM of etoposide, 12.5 μM of mellitin or 12.5 μM or 63 μM of Pep27anal2 for 4 hr. Apoptosis and membrane integrity were then determined using annexin V and propidium iodide, respectively, as described in "Materials and methods". […] Dead cells appear first in the lower right quadrant (apoptosis), where death was due to the externalization of PS (detected with annexin V-FITC).

Compound: COc1cc([C@@H]2c3cc4c(cc3[C@@H](O[C@@H]3O[C@@H]5CO[C@@H](C)O[C@H]5[C@H](O)[C@H]3O)[C@H]3COC(=O)[C@H]23)OCO4)cc(OC)c1O [Etoposide, etoposide, reference compound]
- apoptosis (apoptotic cells by electron microscopy) (Jurkat cells [1]): Apoptotic cells were more frequent than in the control group

Compound: MRKEFHNVLSSGQLLADKRPARDYNRK-NH2 [Pep27, reference compound]
- IC50 [2]: > 70 µM
- IC50 [3]: > 70 µM
- IC50 [4]: > 70 µM
- IC50 [5]: > 70 µM
- IC50 [6]: > 70 µM
- % Hemolysis (human erythrocytes; 0.19 μM peptide): 0%
- % Hemolysis (human erythrocytes; 0.39 μM peptide): 0%
- % Hemolysis (human erythrocytes; 0.78 μM peptide): 0%
- % Hemolysis (human erythrocytes; 1.56 μM peptide): 0%
- % Hemolysis (human erythrocytes; 3.12 μM peptide): 0%
- % Hemolysis (human erythrocytes; 6.25 μM peptide): 0%
- % Hemolysis (human erythrocytes; 12.5 μM peptide): 0%

Compound: MWKWFHNVLSWWWLLADKRPARDYNRK-NH2 [Pep27anal2]
- cytochrome c release from mitochondria into the cytosol (Jurkat cells [7]): did not induce cytochrome c release
- annexin V-FITC staining (apoptosis) and PI staining (membrane integrity) (Jurkat cells [8]): caused a higher level of annexin V-FITC staining with a little increase of PI staining than etoposide
- apoptosis (apoptotic cells by electron microscopy) (Jurkat cells [1]): Apoptotic cells were most frequent in this group; also recorded: induced more apoptosis than 100 μM of etoposide

Compound: CC[C@H](C)[C@H](NC(=O)CN)C(=O)NCC(=O)N[C@@H](C)C(=O)N[C@H](C(=O)N[C@@H](CC(C)C)C(=O)N[C@@H](CCCCN)C(=O)N[C@H](C(=O)N[C@@H](CC(C)C)C(=O)N[C@H](C(=O)N[C@H](C(=O)NCC(=O)N[C@@H](CC(C)C)C(=O)N1CCC[C@H]1C(=O)N[C@@H](C)C(=O)N[C@@H](CC(C)C)C(=O)N[C@H](C(=O)N[C@@H](CO)C(=O)N[C@@H](Cc1c[nH]c2ccccc12)C(=O)N[C@H](C(=O)N[C@@H](CCCCN)C(=O)N[C@@H](CCCNC(=N)N)C(=O)N[C@@H](CCCCN)C(=O)N[C@@H](CCCNC(=N)N)C(=O)N[C@@H](CCC(N)=O)C(=O)N[C@@H](CCC(N)=O)C(N)=O)[C@@H](C)CC)[C@@H](C)CC)[C@@H](C)O)[C@@H](C)O)C(C)C)C(C)C [Mellitin, reference compound]
- annexin V-FITC staining (apoptosis) and PI staining (membrane integrity) (Jurkat cells [8]): increased the distribution of PI staining without an increase of annexin V-FITC staining

Compound: MWKWFHNVLSSGQLLADKWWAWWYNWW-NH2 [Pep27anal5]
- IC50 [2]: > 70 µM
- IC50 [3]: > 70 µM
- IC50 [4]: > 70 µM
- IC50 [5]: > 70 µM
- IC50 [6]: > 70 µM
- % Hemolysis (human erythrocytes; 0.19 μM peptide): 0%
- % Hemolysis (human erythrocytes; 0.39 μM peptide): 0%
- % Hemolysis (human erythrocytes; 0.78 μM peptide): 0%
- % Hemolysis (human erythrocytes; 1.56 μM peptide): 0%
- % Hemolysis (human erythrocytes; 3.12 μM peptide): 0%
- % Hemolysis (human erythrocytes; 6.25 μM peptide): 0%
- % Hemolysis (human erythrocytes; 12.5 μM peptide): 0%

Compound: MWKEFHNVLSSGQLLADKRWARWYNRW-NH2 [Pep27anal4]
- IC50 [2]: 50 µM
- IC50 [3]: 51 µM
- IC50 [4]: 46 µM
- IC50 [5]: 37 µM
- IC50 [6]: 29 µM
- % Hemolysis (human erythrocytes; 0.19 μM peptide): 0%
- % Hemolysis (human erythrocytes; 0.39 μM peptide): 0%
- % Hemolysis (human erythrocytes; 0.78 μM peptide): 0%
- % Hemolysis (human erythrocytes; 1.56 μM peptide): 0%
- % Hemolysis (human erythrocytes; 3.12 μM peptide): 0%
- % Hemolysis (human erythrocytes; 6.25 μM peptide): 0%
- % Hemolysis (human erythrocytes; 12.5 μM peptide): 0%
